Experimental data from PubChem BioAssay AID1259408 (Genetic Toxicology Data Bank (GENE-TOX), 2018).
Calls of active or inactive are those of the source. No rule for the calls is given here.

System: GENE-TOX genotoxicity assays, various organisms and cells
Test: GENE-TOX mutagenicity studies
[1] = Species/Cell Type: Mammalian polychromatic erythrocytes, Assay Type: Micronucleus test, chromosome aberrations, Assay Code: MNTT, Evaluation Type: Evaluation B (Post-1980)
[2] = Species/Cell Type: Salmonella typhimurium (one or more of the five standard strains: TA98, TA100, TA1535, TA1537, and TA1538), Assay Type: Histidine reverse gene mutation, Ames assay, Assay Code: SAL+*, Activation: With metabolic activation, Evaluation Type: Evaluation A (Pre-1980)
[3] = Species/Cell Type: Rodents, Sex: Male, Assay Type: Dominant lethal test, Assay Code: DLT-, Evaluation Type: Evaluation A (Pre-1980)
[4] = Species/Cell Type: Salmonella typhimurium (one or more of the five standard strains: TA98, TA100, TA1535, TA1537, and TA1538), Assay Type: Histidine reverse gene mutation, Ames assay, Assay Code: SALT, Evaluation Type: Evaluation A (Pre-1980)

For `CC(C)NCC(O)COc1ccc(CC(N)=O)cc1` (stereo unspecified), the mutagenic call [1] was “no conclusion”.
`COc1ccc2c3ccc(OC)cc3c3c4cc(OC)ccc4c4ccc(OC)cc4c3c2c1` was tested, and the mutagenic call [2] was “active; positive”.
For `COc1nc2c(c(=O)n(C)c(=O)n2C)n1C`, the mutagenic call (Species/Cell Type: Allium cepa, Assay Type: Chromosome aberrations, Assay Code: ALC+D, Dose Response: With dose response, Evaluation Type: Evaluation A (Pre-1980)) was “active; positive” and the mutagenic call (Species/Cell Type: Vicia faba, Assay Type: Chromosome aberrations, Assay Code: VIC+, Evaluation Type: Evaluation A (Pre-1980)) was “active; positive”.
With `COc1cc2c(c(O)c1O)C(=O)c1c(O)cc(C)cc1C2=O` the mutagenic call (Species/Cell Type: Salmonella typhimurium (one or more of the five standard strains: TA98, TA100, TA1535, TA1537, and TA1538), Assay Type: Histidine reverse gene mutation, Ames assay, Assay Code: SAL+, Evaluation Type: Evaluation A (Pre-1980)) was “active; positive”.
For `O=[N+]([O-])c1ccc(Oc2c(Cl)cc(Cl)cc2Cl)cc1`, the mutagenic call (Species/Cell Type: Mammalian polychromatic erythrocytes, Assay Type: Micronucleus test, chromosome aberrations, Assay Code: MNTT, Evaluation Type: Evaluation A (Pre-1980)) was “no conclusion”.
In the case of `Cc1ccc2c(c1)cc1ccccc1[n+]2C`, the mutagenic call (Species/Cell Type: Saccharomyces cerevisiae, Assay Type: Forward gene mutation, Assay Code: YEFT, Evaluation Type: Evaluation A (Pre-1980)) is reported as “no conclusion”.
In the case of `Cc1cc(O)c2c(c1)C(=O)c1cc(OC3O[C@@H](C)[C@H](O)[C@@H](O)[C@H]3O)cc(O)c1C2=O` (stereo partly specified), the mutagenic call [2] is reported as “active; positive”.
For `CC(CN1CC(=O)NC(=O)C1)N1CC(=O)NC(=O)C1` (stereo unspecified), the mutagenic call (Species/Cell Type: Salmonella typhimurium (one or more of the five standard strains: TA98, TA100, TA1535, TA1537, and TA1538), Assay Type: Histidine reverse gene mutation, Ames assay, Assay Code: SAL-, Evaluation Type: Evaluation A (Pre-1980)) was “inactive; negative”.
`OCCN1CCN(C2Cc3cc(Cl)ccc3Sc3ccccc32)CC1` (stereo unspecified) was tested, and the mutagenic call [3] was “inactive; negative”.
For `Nc1ncnc2c1ccn2[C@@H]1O[C@H](CO)[C@@H](O)[C@H]1O`, the mutagenic call (Species/Cell Type: Fischer rat embryo (RLV/1706) cells, Assay Type: Cell transformation, viral enhanced, Assay Code: CTR-, Evaluation Type: Evaluation A (Pre-1980)) was “inactive; negative”.
For `NCC(=O)CCC(=O)O`, the mutagenic call [3] was “inactive; negative”.
With `c1ccncc1` the mutagenic call [1] was “no conclusion” and the mutagenic call (Species/Cell Type: Nonhuman, Assay Type: Sister-chromatid exchange (SCE) in vitro, Assay Code: SC2+D, Dose Response: With dose response, Evaluation Type: Evaluation A (Pre-1980)) was “active; positive”.
For `O=[N+]([O-])c1cnc[nH]1`, the mutagenic call [4] was “no conclusion”.
For `O`, the mutagenic call (Species/Cell Type: Bacillus subtilis (H17 vs M45), Assay Type: Rec-assay, spot test, DNA effects (bacterial DNA repair), Assay Code: REWT, Evaluation Type: Evaluation A (Pre-1980)) was “no conclusion”, the mutagenic call (Species/Cell Type: Nonhuman, Assay Type: Sister-chromatid exchange (SCE) in vitro, Assay Code: SC2T, Evaluation Type: Evaluation B (Post-1980)) was “no conclusion” and the mutagenic call (Species/Cell Type: Syrian hamster embryo (SA7/SHE) cells, Assay Type: Cell transformation, viral enhanced, Assay Code: CT7-, Evaluation Type: Evaluation A (Pre-1980)) was “inactive; negative”.
In the case of `Cc1nccc2c1[nH]c1ccccc12`, the mutagenic call (Species/Cell Type: Human lymphocytes, Assay Type: Sister-chromatid exchange (SCE) in vitro, Assay Code: SCL+D, Dose Response: With dose response, Evaluation Type: Evaluation B (Post-1980)) is reported as “active; positive”, the mutagenic call (Species/Cell Type: Human, Assay Type: Sister-chromatid exchange (SCE) in vitro, Assay Code: SC1+D, Dose Response: With dose response, Evaluation Type: Evaluation B (Post-1980)) is reported as “active; positive” and the mutagenic call [4] is reported as “no conclusion”.
For `C[C@H](CC[C@H](C)OS(C)(=O)=O)OS(C)(=O)=O`, the mutagenic call (Species/Cell Type: Rodents, Sex: Male, Assay Type: Dominant lethal test, Assay Code: DLT+, Evaluation Type: Evaluation A (Pre-1980)) was “active; positive”.
With `CON` the mutagenic call (Species/Cell Type: Drosophila melanogaster, Assay Type: Sex-linked recessive lethal gene mutation, Assay Code: SRLT, Evaluation Type: Evaluation A (Pre-1980)) was “no conclusion”, the mutagenic call (Species/Cell Type: Drosophila melanogaster, Sex: Male, Assay Type: Heritable translocation test, chromosome aberrations, Assay Code: DHTT, Evaluation Type: Evaluation A (Pre-1980)) was “no conclusion” and the mutagenic call (Species/Cell Type: Neurospora crassa, Assay Type: Reverse gene mutation, Assay Code: NER+, Evaluation Type: Evaluation A (Pre-1980)) was “active; positive”. The mutagenic call (Species/Cell Type: Saccharomyces cerevisiae, Assay Type: Mitotic recombination or gene conversion, Assay Code: YEH+, Evaluation Type: Evaluation A (Pre-1980)) was “active; positive”.
